Assay results as given in US12459912B2 (priority 2020, dated 2025).
Entries after “also recorded” stand apart in the source; their conditions may differ.

Assays:
[1] = target: T1, human 5-HT transporter (hSERT) (Homo sapiens, UniProt P31645); assay: Human serotonin transporter antagonist radioligand assay ([^3H]imipramine, CHO cells); format: binding
T1 construct: expressed in transfected cells; host or cells: CHO cells
Protocol: We therefore separately measured interactions with these transporters using two additional types of assays: an antagonist radioligand assay of inhibition of the human 5-HT transporter (hSERT) expressed in CHO cells (Tatsumi, M. et al. (1999), Eur. J. Pharmacol., 368: 277-283) and an assay measuring release of [^3H] […] While the former is sensitive to classic reuptake inhibition, the latter can detect the effects of substrates, which also induce release.
Benzothiophene derivatives were evaluated for inhibiting the human 5-HT transporter (hSERT) as expressed in CHO cells using an antagonist radioligand assay (Tatsumi, M. et al. (1999), Eur. J. Pharmacol., 368: 277-283). […] Test compounds were assayed in three trials at […], and 0.94868 μM.
When compounds are substrates for monoamine transporters instead of solely inhibitors, it is known that IC50 values underestimate their potency for interacting with these transporters (Ilic, M. et al. (2020), Frontiers in Pharmacology 11: 673).

[2] = target: 5-Hydroxytryptamine (Serotonin) Receptor 1B (5-HT1B) (Homo sapiens, UniProt P28222); assay: 5-HT1B/cAMP; format: cell-based; conditions: EC50 at 5-HT1B, agonist
human SERT = target: T2, human SERT (Homo sapiens, UniProt P31645); assay: hSERT [^3H]serotonin release assay (CHO cells); format: cell-based; conditions: for [^3H]-labeled serotonin release (figure legend): percent of max release compared to a control, as function of concentration
T2 construct: expressed in transfected cells

human DAT = target: T3, human DAT (Homo sapiens, UniProt Q01959); assay: hDAT [^3H]dopamine release assay (CHO cells); format: cell-based; conditions: for DAT/SERT ratio: (DAT EC50)^−1/(SERT EC50)^−1, larger numbers indicate higher DAT selectivity; for [^3H]-labeled dopamine release (figure legend): percent of max release compared to a control, as function of concentration
T3 construct: expressed in transfected cells

Swiss CD 1 mice = assay: Marble burying test; format: in vivo; conditions: racemic compounds, intraperitoneally 30 minutes before a 30-min session
MAO-A = MAO-A (Rattus norvegicus, UniProt P21396); conditions: read-out: IC50 MAO-A; Vallejos et al. 2005; cited from earlier work
[3] = Poos 1967; cited from earlier work
neuritogenesis = conditions: Ly et al. 2018, cited from earlier work
5-HT1B = 5-HT1B (Homo sapiens, UniProt P28222); conditions: Ray 2010; cited from earlier work
[4] = target: T4, nAChR(a4/b2) (Nicotinic acetylcholine Receptor α4 β2) (Homo sapiens, UniProt P17787+P43681); assay: cell-based; conditions: reference compound, Blocker mode; read-out: RC50 (μM), Result Type IC50
T4 construct: expressed in transfected cells

[5] = target: T5, GABAA (Gamma-aminobutyric acid Receptor A); format: cell-based; conditions: reference compound, Blocker mode; read-out: RC50 (μM), Result Type IC50
T5 construct: other: opener

T3 sequence (Q01959 whole entry): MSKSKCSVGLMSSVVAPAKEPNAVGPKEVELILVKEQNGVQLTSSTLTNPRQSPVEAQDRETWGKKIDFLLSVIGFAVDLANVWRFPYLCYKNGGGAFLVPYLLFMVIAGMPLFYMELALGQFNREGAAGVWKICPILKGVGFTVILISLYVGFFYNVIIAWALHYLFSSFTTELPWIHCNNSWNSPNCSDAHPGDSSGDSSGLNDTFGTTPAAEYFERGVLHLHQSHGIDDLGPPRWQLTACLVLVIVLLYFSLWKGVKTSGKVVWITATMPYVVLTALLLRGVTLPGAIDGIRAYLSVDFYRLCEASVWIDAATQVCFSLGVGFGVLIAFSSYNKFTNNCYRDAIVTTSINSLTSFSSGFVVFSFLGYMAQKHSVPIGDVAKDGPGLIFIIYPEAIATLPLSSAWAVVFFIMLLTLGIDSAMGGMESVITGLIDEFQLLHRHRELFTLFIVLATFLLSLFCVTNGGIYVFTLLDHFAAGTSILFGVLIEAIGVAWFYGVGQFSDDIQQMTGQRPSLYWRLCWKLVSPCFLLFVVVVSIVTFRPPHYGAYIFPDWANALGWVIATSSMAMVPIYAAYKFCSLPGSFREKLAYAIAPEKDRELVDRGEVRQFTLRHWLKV
Chain of 5-Hydroxytryptamine (Serotonin) Receptor 1B (5-HT1B) (P28222 whole entry): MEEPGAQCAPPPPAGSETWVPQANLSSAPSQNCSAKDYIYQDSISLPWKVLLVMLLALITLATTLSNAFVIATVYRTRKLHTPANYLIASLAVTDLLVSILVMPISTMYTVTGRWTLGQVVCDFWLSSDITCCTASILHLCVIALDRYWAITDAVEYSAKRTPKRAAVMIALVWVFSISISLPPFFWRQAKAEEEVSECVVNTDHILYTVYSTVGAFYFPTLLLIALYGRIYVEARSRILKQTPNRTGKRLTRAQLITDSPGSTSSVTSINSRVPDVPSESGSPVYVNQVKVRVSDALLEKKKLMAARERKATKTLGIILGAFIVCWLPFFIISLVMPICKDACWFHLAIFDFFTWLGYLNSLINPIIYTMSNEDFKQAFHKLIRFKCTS
T1 sequence (P31645 whole entry): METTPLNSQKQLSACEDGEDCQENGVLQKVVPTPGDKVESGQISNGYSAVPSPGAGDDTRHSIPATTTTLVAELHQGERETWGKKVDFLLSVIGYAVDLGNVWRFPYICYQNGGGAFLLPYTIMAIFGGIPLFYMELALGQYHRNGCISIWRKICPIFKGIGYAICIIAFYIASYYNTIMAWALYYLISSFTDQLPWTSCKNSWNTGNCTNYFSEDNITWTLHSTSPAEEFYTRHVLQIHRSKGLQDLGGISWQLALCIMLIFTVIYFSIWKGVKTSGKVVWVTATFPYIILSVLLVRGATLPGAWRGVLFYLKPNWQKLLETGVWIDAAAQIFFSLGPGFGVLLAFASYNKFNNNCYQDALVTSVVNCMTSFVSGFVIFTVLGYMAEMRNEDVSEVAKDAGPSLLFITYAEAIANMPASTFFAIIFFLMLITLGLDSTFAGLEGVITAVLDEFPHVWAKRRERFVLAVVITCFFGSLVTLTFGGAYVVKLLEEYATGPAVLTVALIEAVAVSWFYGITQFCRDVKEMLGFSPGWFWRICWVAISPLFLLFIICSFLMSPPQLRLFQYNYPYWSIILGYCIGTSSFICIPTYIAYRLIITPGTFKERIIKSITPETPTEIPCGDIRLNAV
T2 sequence (P31645 whole entry): as above
Chain of 5-HT1B (P28222 whole entry, species assumed): as the sequence (P28222 whole entry) above
T4 sequence (P43681 29-627 limits assumed): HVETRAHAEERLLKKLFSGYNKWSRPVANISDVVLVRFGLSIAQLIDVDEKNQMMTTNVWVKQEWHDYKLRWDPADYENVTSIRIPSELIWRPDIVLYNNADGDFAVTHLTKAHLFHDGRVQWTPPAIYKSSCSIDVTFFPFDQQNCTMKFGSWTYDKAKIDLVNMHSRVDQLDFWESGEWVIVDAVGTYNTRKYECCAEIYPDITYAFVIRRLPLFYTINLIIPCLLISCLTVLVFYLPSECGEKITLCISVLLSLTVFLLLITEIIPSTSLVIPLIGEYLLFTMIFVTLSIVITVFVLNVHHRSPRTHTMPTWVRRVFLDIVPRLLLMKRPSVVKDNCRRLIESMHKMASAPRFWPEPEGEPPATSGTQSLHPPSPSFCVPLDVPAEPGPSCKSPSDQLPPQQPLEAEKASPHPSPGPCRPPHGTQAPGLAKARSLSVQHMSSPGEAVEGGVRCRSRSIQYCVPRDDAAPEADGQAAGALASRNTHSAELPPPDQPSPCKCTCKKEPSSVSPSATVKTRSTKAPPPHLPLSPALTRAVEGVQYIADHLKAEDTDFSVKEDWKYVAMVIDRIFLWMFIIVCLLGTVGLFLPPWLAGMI
T4 sequence (P17787 26-502): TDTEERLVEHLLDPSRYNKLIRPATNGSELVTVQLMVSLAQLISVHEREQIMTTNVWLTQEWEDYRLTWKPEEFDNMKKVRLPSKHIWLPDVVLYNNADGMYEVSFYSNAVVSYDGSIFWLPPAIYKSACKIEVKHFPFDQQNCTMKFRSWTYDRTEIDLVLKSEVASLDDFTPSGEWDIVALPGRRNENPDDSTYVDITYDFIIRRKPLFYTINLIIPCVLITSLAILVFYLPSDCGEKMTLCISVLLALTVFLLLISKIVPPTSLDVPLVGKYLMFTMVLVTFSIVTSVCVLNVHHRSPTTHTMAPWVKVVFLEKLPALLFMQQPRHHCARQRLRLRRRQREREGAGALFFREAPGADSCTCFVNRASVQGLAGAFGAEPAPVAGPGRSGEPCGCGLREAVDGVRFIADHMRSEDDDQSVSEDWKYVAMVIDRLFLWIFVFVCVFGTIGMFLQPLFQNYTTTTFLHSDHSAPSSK
Chain of MAO-A (P21396 whole entry): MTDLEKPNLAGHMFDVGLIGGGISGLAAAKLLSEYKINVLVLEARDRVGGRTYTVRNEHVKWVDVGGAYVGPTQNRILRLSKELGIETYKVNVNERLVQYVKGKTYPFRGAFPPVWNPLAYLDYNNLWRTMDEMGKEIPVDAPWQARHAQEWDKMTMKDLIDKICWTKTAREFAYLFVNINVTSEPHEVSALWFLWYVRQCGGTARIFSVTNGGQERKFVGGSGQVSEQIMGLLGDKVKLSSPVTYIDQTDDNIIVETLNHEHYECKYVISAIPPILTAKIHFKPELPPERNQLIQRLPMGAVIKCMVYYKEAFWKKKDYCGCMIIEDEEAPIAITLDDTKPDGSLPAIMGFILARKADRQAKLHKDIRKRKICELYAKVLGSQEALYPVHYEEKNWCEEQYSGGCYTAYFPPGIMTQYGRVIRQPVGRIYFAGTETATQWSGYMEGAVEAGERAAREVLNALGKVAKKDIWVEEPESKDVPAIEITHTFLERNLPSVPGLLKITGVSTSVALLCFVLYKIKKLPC

Row | Compound | IC50 [1] [nM] | Ki [1] [nM] | EC50 (human SERT) [nM] | [^3H]-labeled serotonin release (figure legend) (human SERT) | EC50 (human DAT) [nM] | DAT/SERT ratio (human DAT) | [^3H]-labeled dopamine release (figure legend) (human DAT) | anxiolytic effect (marbles left unburied versus placebo) (Swiss CD 1 mice) | other results
1 | CNC(C)Cc1ccc2sccc2c1 (stereo not shown) | 250 | 120 |  |  |  |  |  |  | 
2 | CNC(C)C(=O)c1ccc2sccc2c1 (stereo not shown) | 2000 | 900 |  |  |  |  |  |  | 
3 | CCNC(C)Cc1ccc2sccc2c1 (stereo not shown) | 100 | 50 |  |  |  |  |  |  | 
4 | CNC(C)C(=O)c1ccc2sccc2c1.Cl (stereo not shown) [Bk-5-MAPBT, 1-(benzo[b]thiophen-5-yl)-2-(methylamino) propan-1-one hydrochloride] |  |  | 101 | rapidly induces extracellular dopamine and serotonin release | 194 | 0.52 | rapidly induces extracellular dopamine and serotonin release | dose-dependent anxiolytic effects | EC50 [2]: 59 nM
5 | CC(N)Cc1csc2ccccc12 (stereo not shown) [Compound 3-APBT, 1-(1-benzothiophen-3-yl)propan-2-amine] |  |  |  |  |  |  |  |  | IC50 (MAO-A): 16200 ± 400 nM; effect on appetite [3]: acted to reduce appetite
6 | CCNC(C)Cc1ccc2sccc2c1.Cl (stereo not shown) [Compound 5-EAPBT, 1-(benzothiophen-5-yl)-N-ethylpropan-2-amine hydrochloride] |  |  | 53 | rapidly induces extracellular dopamine and serotonin release | 98 | 0.54 | rapidly induces extracellular dopamine and serotonin release | dose-dependent anxiolytic effects | dopamine release Emax in comparison to the reference releaser amphetamine (human DAT; high concentrations, 100 μM amphetamine as reference, hydrochloride): partial DAT substrate; also recorded: Emax below that of the reference releaser
7 | CNC(C)Cc1ccc2sccc2c1.Cl (stereo not shown) [Compound 5-MAPBT, 1-(benzothiophen-5-yl)-N-methylpropan-2-amine hydrochloride] |  |  | 23 | rapidly induces extracellular dopamine and serotonin release | 129 | 0.18 | rapidly induces extracellular dopamine and serotonin release | dose-dependent anxiolytic effects | EC50 [2]: 38 nM
8 | CNC(C)Cc1ccc2ccsc2c1.Cl (stereo not shown) [Compound 6-MAPBT, 1-(benzothiophen-6-yl)-N-methylpropan-2-amine hydrochloride] |  |  | 57 | rapidly induces extracellular dopamine and serotonin release | 71 | 0.80 | rapidly induces extracellular dopamine and serotonin release | dose-dependent anxiolytic effects | EC50 [2]: 24 nM
9 | CNC(C)Cc1ccc2c(c1)OCO2 (stereo not shown) [MDMA] |  |  |  |  |  |  |  |  | Emax for promoting neuritogenesis relative to ketamine (neuritogenesis): approximately twice that of ketamine; EC50 (neuritogenesis; read-out: EC50 for promoting neuritogenesis): 7.41 nM; binding to 5-HT1B (5-HT1B): does not bind directly
10 | CNC(C)Cc1ccc2ccsc2c1 (stereo not shown) [drawing 525] | 1500 | 680 |  |  |  |  |  |  | 
11 | Dihydro-AY-erythroidine [reference compound] |  |  |  |  |  |  |  |  | IC50 [4]: 0.682 µM
12 | Picrotoxin [reference compound] |  |  |  |  |  |  |  |  | IC50 [5]: 2.78 µM
